Reference: ChEMBL document CHEMBL1130793, “Peptide inhibitors of N-succinyl diaminopimelic acid aminotransferase (DAP-AT): a novel class of antimicrobial compounds” (Bioorg Med Chem Lett, 1998)

Legend:
[1] = Pharmacokinetic parameter was determined; format: ADME
[2] = test system: N-succinyldiaminopimelate aminotransferase (E. coli); experiment: Compound was tested for inhibition of N-Succinyl Diaminopimelic Acid Aminotransferase from Escherichia coli.; settings: concentration not given here
[3] = Michaelis-Menten constant was determined; format: ADME; settings: read-out: Km app
[4] = Ratio of the Kcat and Km app was determined; format: ADME
Escherichia coli = experiment: Regeneration time when tested against inhibition of N-Succinyl Diaminopimelic Acid Aminotransferase from Escherichia coli
[5] = test system: N-succinyldiaminopimelate aminotransferase (E. coli); experiment: Compound was tested for 50% inhibition of N-Succinyl Diaminopimelic Acid Aminotransferase (DAP-AT) from E. coli; overall rate of substrate consumption increases at 20 mM
[6] = test system: N-succinyldiaminopimelate aminotransferase (E. coli); experiment: Compound was tested for inhibition of N-Succinyl Diaminopimelic Acid Aminotransferase from Escherichia coli; settings: concentration not given here
[7] = Catalytic constant was determined; format: ADME

Compound: CC(=O)N[C@@H](Cc1ccccc1)C(=O)N[C@@H](CCCC(=O)C(=O)[O-])C(=O)[O-].[Li+].[Li+]
- k cat [1]: < 2.1 s⁻¹
- inhibition [2]: < 0.8%
- Km [3]: < 1000 µM
- k cat/Km [4]: < 2100 M⁻¹ s⁻¹

Compound: NNC(CCC[C@H](NC(=O)CCC(=O)O)C(=O)O)C(=O)O (stereo partly specified)
- T1/2 regen (Escherichia coli): 78.6 min

Compound: CC(=O)N[C@@H](Cc1ccccc1)C(=O)N[C@@H](CCCC(NN)C(=O)O)C(=O)O (stereo partly specified)
- T1/2 regen (Escherichia coli): 6.07 min

Compound: CC(=O)N[C@@H](CC(=O)[O-])C(=O)N[C@@H](CCCC(=O)C(=O)[O-])C(=O)[O-].[Li+].[Li+].[Li+]
- k cat [1]: 40 s⁻¹
- Km [3]: 1570 µM
- IC50 [5]: overall rate of substrate consumption increases at 20 mM
- inhibition [6]: 9.3%
- k cat/Km [4]: 25400 M⁻¹ s⁻¹

Compound: CC(=O)N[C@@H](CC(=O)O)C(=O)N[C@@H](CCCC(NN)C(=O)O)C(=O)O (stereo partly specified)
- T1/2 regen (Escherichia coli): 48.95 min

Compound: O=C(O)CCC(=O)N[C@@H](CCCC(=O)C(=O)O)C(=O)O
- k cat [7]: 164 s⁻¹
- inhibition [2]: 100%
- Km [3]: 600 µM
- k cat/Km [4]: 273000 M⁻¹ s⁻¹
